Experimental data reported in patent US6916798B2, “Inhibitors of GSK-3 and uses thereof” (Vertex Pharmaceuticals Incorporated, priority 2001, dated 2005).

Columns and labels:
Format in all cases: biochemical
Aurora-2 = target: T1, Aurora-2 (Homo sapiens, UniProt O14965); assay: Ki determination for the inhibition of Aurora-2, standard coupled enzyme assay; conditions: 70 nM Aurora-2, 800 μM peptide LRRASLG, 30° C.
T1 sequence (O14965 1-403): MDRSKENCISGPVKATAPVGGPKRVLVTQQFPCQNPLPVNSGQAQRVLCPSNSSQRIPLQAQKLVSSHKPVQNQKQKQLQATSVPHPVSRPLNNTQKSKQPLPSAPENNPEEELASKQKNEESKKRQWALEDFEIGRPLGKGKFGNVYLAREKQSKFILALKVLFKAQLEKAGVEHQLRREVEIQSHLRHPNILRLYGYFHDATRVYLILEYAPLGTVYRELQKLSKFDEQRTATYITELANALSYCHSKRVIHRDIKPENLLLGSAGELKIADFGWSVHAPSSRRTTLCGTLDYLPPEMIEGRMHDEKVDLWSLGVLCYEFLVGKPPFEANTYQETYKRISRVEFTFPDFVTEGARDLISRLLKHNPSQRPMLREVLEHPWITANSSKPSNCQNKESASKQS
Experimental: Compounds were screened in the following manner for their ability to inhibit Aurora-2 using a standard coupled enzyme assay (Fox et al. (1998) Protein Sci. 7, 2249).
(§1) To an assay stock buffer solution containing 0.1M HEPES 7.5, 10 mM MgCl2, 1 mM DTT, 25 mM NaCl, 2.5 mM phosphoenolpyruvate, […], 30 mg/ml pyruvate kinase, 10 mg/ml lactate dehydrogenase, 40 mM ATP, and 800 μM peptide (LRRASLG, American Peptide, Sunnyvale, Calif.) was added a DMSO solution of a compound of the present invention to a final concentration of 30 μM. The resulting mixture was incubated at 30° C. for 10 min. The reaction was initiated by the addition of 10 μL of Aurora-2 stock solution to give a final concentration of 70 nM in the assay. The rates of reaction were obtained by monitoring absorbance at 340 nm over a 5 minute read time at 30° C. using a BioRad Ultramark plate reader (Hercules, Calif.). The Ki values were determined from the rate data as a function of inhibitor concentration.

GSK-3β (AA 1-420) = target: T2, GSK-3β (AA 1-420) (Homo sapiens, UniProt P49841); assay: Ki determination for the inhibition of GSK-3, standard coupled enzyme system; conditions: 20 μM ATP, 300 μM peptide, 20 nM GSK-3β, 30° C.; read-out: Ki values for GSK-3
T2 construct: GSK-3β (AA 1-420)
T2 sequence (P49841 whole entry, the tested form may be a part): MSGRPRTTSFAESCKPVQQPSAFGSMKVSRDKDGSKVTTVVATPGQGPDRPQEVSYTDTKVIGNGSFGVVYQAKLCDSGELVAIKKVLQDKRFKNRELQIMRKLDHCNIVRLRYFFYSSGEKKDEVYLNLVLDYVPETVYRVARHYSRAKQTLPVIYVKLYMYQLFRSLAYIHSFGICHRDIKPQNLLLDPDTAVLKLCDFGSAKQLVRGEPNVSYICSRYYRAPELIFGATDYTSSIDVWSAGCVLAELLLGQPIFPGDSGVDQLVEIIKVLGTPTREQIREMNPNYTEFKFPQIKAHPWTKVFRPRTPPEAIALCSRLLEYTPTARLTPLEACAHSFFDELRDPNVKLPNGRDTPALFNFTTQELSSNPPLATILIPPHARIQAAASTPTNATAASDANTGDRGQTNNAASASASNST
Experimental: Final substrate concentrations in the assay were 20 μM ATP (Sigma Chemicals, St Louis, Mo.) and 300 μM peptide (HSSPHQS(PO3H2)EDEEE, American Peptide, Sunnyvale, Calif.). Reactions were carried out at 30° C. and 20 nM GSK-3β. Final concentrations of the components of the coupled enzyme system were 2.5 mM phosphoenolpyruvate, 300 μM NADH, 30 μg/ml pyruvate kinase and 10 μg/ml lactate dehydrogenase.
An assay stock buffer solution was prepared containing all of the reagents listed above with the exception of ATP and the test compound of interest. The assay stock buffer solution (175 μl) was incubated in a 96 well plate with 5 μl of the test compound of interest at final concentrations spanning 0.002 μM to 30 μM at 30 ° C. for 10 min. […] The reaction was initiated by the addition of 20 μl of ATP (final concentration 20 μM). Rates of reaction were obtained using a Molecular Devices Spectramax plate reader (Sunnyvale, Calif.) over 10 min at 30° C. The Ki values were determined from the rate data as a function of inhibitor concentration.

CDK-2/Cyclin A [1] = target: T3, CDK-2/Cyclin A (Homo sapiens, UniProt P24941); assay: Inhibition of CDK-2, standard coupled enzyme assay; conditions: for inhibition at 2 µM: 2 μM compound; for inhibition at 10 µM: read-out: CDK-2 % inhibition @ 10 μM, 10 μM compound
CDK-2/Cyclin A [2] = target: T3, CDK-2/Cyclin A; assay: Inhibition of CDK-2, standard coupled enzyme assay; conditions: 25 nM CDK-2/Cyclin A, 100 μM peptide, 30° C.
Experimental: Compounds were screened in the following manner for their ability to inhibit CDK-2 using a standard coupled enzyme assay (Fox et al (1998) Protein Sci 7, 2249).
as §1, with “[…], […]” for “dehydrogenase, 40”, “and 100” for “and 800”, “peptide ([…],” for “peptide (LRRASLG,”, “of CDK-2/Cyclin A” for “of Aurora-2”, “of 25” for “of 70”, “a 5-minute” for “a 5 minute”

Row | Ki (Aurora-2) [nM] | Ki (GSK-3β (AA 1-420)) [nM] | inhibition at 2 µM (CDK-2/Cyclin A [1]) [%] | inhibition at 10 µM (CDK-2/Cyclin A [1]) [%] | Ki (CDK-2/Cyclin A [2]) [nM] | Compound
1 | < 100 | < 100 |  |  |  | COc1ccc(N/N=C2\C(=O)NN=C2c2cc(OC)c(OC)c(OC)c2)cc1 [Compound 22]
2 | < 100 | < 100 |  |  |  | COc1cc(C2=NNC(=O)C2=NNc2ccc(Cl)cc2)cc(OC)c1OC [Compound 23]
3 | < 100 | < 100 |  |  |  | CCN(CC)c1ccc(N/N=C2\C(=O)NN=C2c2ccc(OC)c(OC)c2)cc1 [Compound 37]
4 | 100 to 1000 | < 100 |  |  |  | COc1ccc(C2=NNC(=O)/C2=N\Nc2ccc(Cl)cc2)cc1 [Compound 43]
5 |  | < 100 | 87 | 94 |  | COc1ccc(C2=NNC(=O)C2=NNc2ccc(Cl)cc2)cc1OC [Compound 44]
6 | 100 to 1000 | < 100 | 82 | 95 |  | COc1ccc(NN=C2C(=O)NN=C2c2ccc(OC)cc2)cc1 [Compound 46]
7 | < 100 | < 100 |  |  |  | COc1ccc(N/N=C2\C(=O)NN=C2c2ccc(OC)c(OC)c2)cc1 [Compound 47]
8 | < 100 | < 100 |  |  |  | COc1ccc(C2=NNC(=O)/C2=N\Nc2ccc(N(C)C)cc2)cc1OC [Compound 52]
9 | 100 to 1000 | < 100 |  |  |  | COc1ccc(C2=NNC(=O)/C2=N\Nc2ccc(C#N)cc2)cc1OC [Compound 58]
10 | 100 to 1000 | < 100 |  |  |  | COc1ccc(C2=NNC(=O)/C2=N\Nc2ccc(N3CCOCC3)cc2)cc1 [Compound 60]
11 | < 100 | < 100 |  |  |  | COc1ccc(C2=NNC(=O)/C2=N\Nc2ccc(N3CCOCC3)cc2)cc1OC [Compound 61]
12 | 100 to 1000 | < 100 |  |  |  | COc1cccc(C2=NNC(=O)/C2=N\Nc2ccc(N3CCOCC3)cc2)c1 [Compound 62]
13 | 100 to 1000 | < 100 |  |  |  | COc1ccc(C2=NNC(=O)/C2=N\Nc2cccc(Cl)c2)cc1OC [Compound 70]
14 | < 100 | < 100 |  |  |  | COc1cccc(N/N=C2\C(=O)NN=C2c2ccc(OC)c(OC)c2)c1 [Compound 73]
15 | < 100 | < 100 |  |  |  | COc1ccc(C2=NNC(=O)C2=NNc2ccc(Oc3ccccc3)cc2)cc1OC [Compound 86]
16 |  | 100 to 1000 |  |  | 1000 to 20000 | COc1ccc(C2=NNC(=O)C2=CNc2ccc(Oc3ccccc3)cc2)cc1 [Compound 91]
17 |  | 100 to 1000 |  |  | 1000 to 20000 | COc1ccc(C2=NNC(=O)C2=CNc2cccc(OCc3ccccc3)c2)cc1OC [Compound 92, 4-[(3-Benzyloxy-phenylamino)-methylene]-5-(3,4-dimethoxy-phenyl)-2,4-dihydro-pyrazol-3-one]

Row | Ki (Aurora-2) [nM] | Ki (GSK-3β (AA 1-420)) [nM] | inhibition at 2 µM (CDK-2/Cyclin A [1]) [%] | inhibition at 10 µM (CDK-2/Cyclin A [1]) [%] | Ki (CDK-2/Cyclin A [2]) [nM] | Compound
18 |  | 100 to 1000 |  |  | 1000 to 20000 | COc1ccc(C2=NNC(=O)C2=CNc2cccc(C(=O)c3ccccc3)c2)cc1 [Compound 93]
19 |  | 100 to 1000 |  |  | 1000 to 20000 | COc1ccc(C2=NNC(=O)C2=CNc2cccc(S(N)(=O)=O)c2)cc1OC [Compound 95, 3-{[3-(3,4-Dimethoxy-phenyl)-5-oxo-1,5-dihydro-pyrazol-4-ylidenemethyl]-amino}-benzenesulfonamide]
20 |  | 100 to 1000 |  |  | 1000 to 20000 | COc1ccc(C2=NNC(=O)C2=CNc2ccc3c(c2)NCC3)cc1 [Compound 96]
21 |  | < 100 |  |  | 1000 to 20000 | COc1ccc(C2=NNC(=O)C2=CNc2ccc3c(c2)N(C(C)=O)CC3)cc1 [Compound 97]
22 |  | < 100 |  |  | 100 to 1000 | COc1ccc(C2=NNC(=O)C2=CNc2ccc(OC)c(O)c2)cc1 [Compound 98]
23 |  | < 100 |  |  | 1000 to 20000 | COc1ccc(C2=NNC(=O)C2=NNc2ccc(OC)c(-c3cccnc3)c2)cc1OC [Compound 106, 5-(3,4-Dimethoxy-phenyl)-4-[(4-methoxy-3-pyridin-3-yl-phenyl)-hydrazono]-2,4-dihydro-pyrazol-3-one]
24 | < 100 |  |  |  | 1000 to 20000 | CCOc1ccc(C2=NNC(=O)C2=NNc2ccc(N(CC)CC)cc2)cc1OCC [Compound 114, 5-(3,4-Diethoxy-phenyl)-4-[(4-diethylamino-phenyl)-hydrazono]-2,4-dihydro-pyrazol-3-one]
25 | < 100 |  |  |  | 1000 to 20000 | CCOc1ccc(C2=NNC(=O)C2=NNc2ccc(N(CC)CCO)cc2)cc1OCC [Compound 115, 5-(3,4-Diethoxy-phenyl)-4-({4-[ethyl-(2-hydroxy-ethyl)-amino]-phenyl}-hydrazono)-2,4-dihydro-pyrazol-3-one]
26 | < 100 |  |  |  | 1000 to 20000 | CCOc1ccc(C2=NNC(=O)C2=NNc2ccc(N3CCOCC3)cc2)cc1OCC [Compound 116, 5-(3,4-Diethoxy-phenyl)-4-[(4-morpholin-4-yl-phenyl)-hydrazono]-2,4-dihydro-pyrazol-3-one]
27 | 100 to 1000 |  |  |  | 1000 to 20000 | CCN(CC)c1ccc(NN=C2C(=O)NN=C2c2ccc(OCc3ccccc3)c(OC)c2)cc1 [Compound 117, 5-(4-Benzyloxy-3-methoxy-phenyl)-4-[(4-diethylamino-phenyl)-hydrazono]-2,4-dihydro-pyrazol-3-one]
28 | < 100 |  |  |  | 1000 to 20000 | CCN(CCO)c1ccc(NN=C2C(=O)NN=C2c2ccc(OCc3ccccc3)c(OC)c2)cc1 [Compound 118, 5-(4-Benzyloxy-3-methoxy-phenyl)-4-({4-[ethyl-(2-hydroxy-ethyl)-amino]-phenyl}-hydrazono)-2,4-dihydro-pyrazol-3-one]
29 | < 100 |  |  |  | 1000 to 20000 | COc1cc(C2=NNC(=O)C2=NNc2ccc(N3CCOCC3)cc2)ccc1OCc1ccccc1 [Compound 119, 5-(4-Benzyloxy-3-methoxy-phenyl)-4-[(4-morpholin-4-yl-phenyl)-hydrazono]-2,4-dihydro-pyrazol-3-one]
30 |  | < 100 |  |  | 1000 to 20000 | COc1ccc(C2=NNC(=O)C2=NNc2ccc(OCCCN(C)CCO)c(-c3ccccc3)c2)cc1OC [Compound 120, 5-(3,4-dimethoxy-phenyl)-4-[(6-{3-[(2-hydroxy-ethyl)-methyl-amino]-propoxy}-biphenyl-3-yl)-hydrazono]-2,4-dihydro-pyrazol-3-one]
31 |  | < 100 |  |  | 1000 to 20000 | COc1ccc(C2=NNC(=O)C2=NNc2ccc(OCCCN(C)C)c(-c3ccccc3)c2)cc1OC [Compound 121, 5-(3,4-Dimethoxy-phenyl)-4-{[6-(3-dimethylamino-propoxy)-biphenyl-3-yl]-hydrazono}-2,4-dihydro-pyrazol-3-one]
32 | < 100 | < 100 |  |  |  | CCN(CCO)c1ccc(NN=C2C(=O)NN=C2c2cc(OC)c(OC)c(OC)c2)cc1 [Compound 223]
33 |  | < 100 |  |  |  | COc1cc(C2=NNC(=O)C2=NNc2ccc(OC)c(Br)c2)ccc1O [Compound 225]
34 |  | 100 to 1000 |  |  |  | COc1cc(C2=NNC(=O)C2=CNc2cc(C)[nH]n2)cc(OC)c1OC [Compound 227]
